Structures are written as SMILES.

The assay concerns Wnt pathway (TCF-dependent transcription in HEK293 luciferase reporter cell line with ER-DSH construct). In words: Cellular assay for Wnt pathway activity (luciferase reporter). It is filed as cell-based. The note with it: Homo sapiens; Wnt pathway inhibition, HEK293 luciferase reporter cells (ER-DSH, TCF promoter), 24 hours incubation, estrogen-induced. The protocol:
1. Cellular Assay for Wnt Pathway Activity
Compounds were tested for their Wnt pathway inhibitory activities using a luciferase reporter cell based assay. A HEK293 luciferase reporter cell line was used which contained an Estrogen Receptor-Dishevelled (ER-DSH) construct and a T-Cell Factor (TCF) dependent gene promoter luciferase construct.
Compounds, in concentrations from 30 μM down to 1 nM, were incubated for 24 hours on the cells, which were induced for TCF-dependent transcription by the addition of estrogen (10). Luciferase activities were determined using the ONE GLO Luciferase Assay System (Promega) and the ENVISION microplate reader (Perkin Elmer). For analysis, the obtained data were normalized against the untreated vehicle control and fitted for determination of the IC50 values using the Assay Explorer software (Accelrys).
On the technique in general: In a reporter assay the amount or activity of a reporter protein is the signal.
Usually IC50 stands for the concentration that gives 50% inhibition. `CC(=O)N(C)CCN(C)c1cncc(Oc2ccc(F)cc2)n1` [Compound 4, N-(2-{[6-(4-Fluoro-phenoxy)-pyrazin-2-yl]-methyl-amino}-ethyl)-N-methyl-acetamide] registered an IC50 of 0.2 to 1 µM.

Regarding `CC(=O)N(C)CCN(C)c1cncc(Oc2ccc(B(O)O)cc2)n1` [Compound 7, 4-(6-{[2-(Acetyl-methyl-amino)-ethyl]-methyl-amino}-pyrazin-2-yloxy)-boronic acid], the concentration for half-maximal inhibition (IC50) fell in the range of 0.2 to 1 µM.

On to `CC(=O)N(C)CCN(C)c1cncc(Oc2ccc(-c3ccc(CO)nc3)cc2)n1` [Compound 8, N-[2-({6-[4-(6-Hydroxymethyl-pyridin-3-yl)-phenoxy]-pyrazin-2-yl}-methyl-amino)-ethyl]-N-methyl-acetamide], for which the IC50 is under 0.2 µM.

Take `CC(=O)N(C)CCN(C)c1cncc(Oc2ccc(-c3cccc(N4CCN(C)CC4)n3)cc2)n1` [Compound 12]: the IC50 was under 0.2 µM.

The compound `CCN(CCSc1cncc(Oc2ccc(-c3ccc(C)cn3)cc2)n1)C(C)=O` [Compound 17, N-Ethyl-N-(2-{6-[4-(5-methyl-pyridin-2-yl)-phenoxy]-pyrazin-2-ylsulfanyl}-ethyl)-acetamide] came in with an IC50 of under 0.2 µM.

In turn, `CC(=O)N(C)CCNc1cncc(Oc2ccc(-c3ccc(C)cn3)cc2)n1` [Compound 19, N-Methyl-N-(2-{6-[4-(5-methyl-pyridin-2-yl)-phenoxy]-pyrazin-2-ylamino}-ethyl)-acetamide] yielded a half-inhibitory concentration (IC50) of under 0.2 µM.

On to `O=C1CCCCN1CCCc1cncc(Oc2ccc(-c3ccc(N4CCOCC4)nc3)cc2)n1` [Compound 25, 1-(3-{6-[4-(6-Morpholin-4-yl-pyridin-3-yl)-phenoxy]-pyrazin-2-yl}-propyl)-piperidin-2-one], for which the IC50 was under 0.2 µM.

In the case of `CNC(=O)CCN(C)c1cncc(Oc2ccc(F)cc2)n1` [Compound 29], the IC50 fell in the range of 0.2 to 1 µM.

`COc1ccc(Oc2cncc(N(C)CCN(C)C(C)=O)n2)cc1` [Compound 30, N-(2-{[6-(4-Methoxy-phenoxy)-pyrazin-2-yl]-methyl-amino}-ethyl)-N-methyl-acetamide]: the IC50 lay in the range of 0.2 to 1 µM.

For the compound `COc1ccc(Oc2cncc(N(C)CCN(C)C(=O)CC(C)(C)C)n2)cc1` [Compound 32, N-(2-{[6-(4-Methoxy-phenoxy)-pyrazin-2-yl]-methyl-amino}-ethyl)-3,3-N-trimethyl-butyramide], the half-inhibitory concentration (IC50) lay within 1 to 10 µM.

Consider `COc1ccc(Oc2cncc(N(C)CCN(C)C(=O)Cc3cccs3)n2)cc1` [Compound 33, N-(2-{[6-(4-Methoxy-phenoxy)-pyrazin-2-yl]-methyl-amino}-ethyl)-N-methyl-2-thiophen-2-yl-acetamide], for which the IC50 was in the range of 1 to 10 µM.

`CCC(=O)N(C)CCN(C)c1cncc(Oc2ccc(F)cc2)n1` [Compound 34, N-(2-{[6-(4-Fluoro-phenoxy)pyrazin-2-yl]-methyl-amino}-ethyl)-N-methyl-propionamide] came in with an IC50 of 1 to 10 µM.

As to `CCC(=O)N(C)CCN(C)c1cncc(Oc2ccc(OC)cc2)n1` [Compound 35, N-(2-{[6-(4-Methoxy-phenoxy)-pyrazin-2-yl]-methyl-amino}-ethyl)-N-methyl-propionamide], the IC50 lay within 1 to 10 µM.

The compound `CC(=O)N(C)CCN(C)c1cncc(Oc2ccc(Cl)cc2)n1` [Compound 36, N-(2-{[6-(4-Chloro-phenoxy)-pyrazin-2-yl]-methyl-amino}-ethyl)-N-methyl-acetamide] had an IC50 of 0.2 to 1 µM.

With `CC(=O)N(C)CCN(C)c1cncc(Oc2ccc(Br)cc2)n1` [Compound 37, N-(2-{[6-(4-Bromo-phenoxy)-pyrazin-2-yl]-methyl-amino}-ethyl)-N-methyl-acetamide], the IC50 is under 0.2 µM.

In the case of `COc1ccc(Oc2cncc(NCC3CCCN(C(C)=O)C3)n2)cc1` (stereo not drawn) [Compound 38, 1-(3-{[6-(4-Methoxy-phenoxy)-pyrazin-2-ylamino]-methyl}-piperidin-1-yl)-ethanone], the IC50 was in the range of 1 to 10 µM.

In the case of `CC(=O)N1CCCC(CNc2cncc(Oc3ccc(F)cc3)n2)C1` (stereo not drawn) [Compound 39, 1-(3-{[6-(4-Fluoro-phenoxy)-pyrazin-2-ylamino]-methyl}-piperidin-1-yl)-ethanone], the IC50 lay within 1 to 10 µM.

On to `COc1ccc(Oc2cncc(N3CCCC(CNC(=O)OC(C)(C)C)C3)n2)cc1` (stereo not drawn) [Compound 40, {1-[6-(4-Methoxy-phenoxy)-pyrazin-2-yl]-piperidin-3-ylmethyl}-carbamic acid tert-butyl ester], for which the IC50 fell in the range of 1 to 10 µM.

Take `COc1cccc(Oc2cncc(N(C)CCN(C)C(C)=O)n2)c1` [Compound 41, N-(2-{[6-(3-Methoxy-phenoxy)-pyrazin-2-yl]-methyl-amino}-ethyl)-N-methyl-acetamide]: the IC50 was in the range of 1 to 10 µM.

In turn, `CC(=O)N(C)CCN(C)c1cncc(OC2CCCC2)n1` [Compound 43, N-{2-[(6-Cyclo-pentyloxy-pyrazin-2-yl)-methyl-amino]-ethyl}-N-methyl-acetamide] came in with an IC50 of 1 to 10 µM.

In turn, `CC(=O)N(C)CCN(C)c1cncc(Oc2cccc(C)c2)n1` [Compound 44, N-Methyl-N-{2-[methyl-(6-m-tolyloxy-pyrazin-2-yl)-amino]-ethyl}-acetamide] gave an IC50 of 1 to 10 µM.

Turning to `CCOC(=O)c1cccc(Oc2cncc(N(C)CCN(C)C(C)=O)n2)c1` [Compound 45, 3-(6-{[2-(Acetyl-methyl-amino)-ethyl]-methyl-amino}-pyrazin-2-yloxy)-benzoic acid ethyl ester], the IC50 lay in the range of 1 to 10 µM.

The compound `CNCCN(C)c1cncc(OC2CCCCC2)n1` [Compound 46, N-(6-Cyclo-hexyloxy-pyrazin-2-yl)-N,N′-dimethyl-ethane-1,2-diamine] came in with an IC50 of 0.2 to 1 µM.

Turning to `CC(=O)N(C)CCN(C)c1cncc(Oc2ccc3ncccc3c2)n1` [Compound 47, N-Methyl-N-(2-{methyl-[6-(quinolin-6-yloxy)-pyrazin-2-yl]-amino}-ethyl)-acetamide], the half-maximal inhibitory concentration (IC50) was in the range of 1 to 10 µM.

For the compound `CC(=O)N(C)CCN(C)c1cncc(OC2CCCCC2)n1` [Compound 48, N-{2-[(6-Cyclo-hexyloxy-pyrazin-2-yl)-methyl-amino]-ethyl}-N-methyl-acetamide], the concentration for half-maximal inhibition (IC50) was in the range of 1 to 10 µM.

`COc1ccc(Oc2cncc(N3CCCC(CNC(C)=O)C3)n2)cc1` (stereo not drawn) [Compound 49, N-{1-[6-(4-Methoxy-phenoxy)-pyrazin-2-yl]-piperidin-3-ylmethyl}-acetamide] had a half-inhibitory concentration (IC50) of 1 to 10 µM.

As for `CSc1cccc(Oc2cncc(N(C)CCN(C)C(C)=O)n2)c1` [Compound 50, N-Methyl-N-(2-{methyl-[6-(3-methyl-sulfanyl-phenoxy)-pyrazin-2-yl]-amino}-ethyl)-acetamide], the IC50 is 0.2 to 1 µM.

`CC(=O)N(C)CCN(C)c1cncc(Oc2ccccc2F)n1` [Compound 51, N-(2-{[6-(2-Fluoro-phenoxy)-pyrazin-2-yl]-methyl-amino}-ethyl)-N-methyl-acetamide] had an IC50 of 0.2 to 1 µM.

As for `CC(=O)N(C)CCN(C)c1cncc(Oc2ccc(C)cc2)n1` [Compound 52, N-Methyl-N-{2-[methyl-(6-p-tolyloxy-pyrazin-2-yl)-amino]-ethyl}-acetamide], the concentration for half-maximal inhibition (IC50) was under 0.2 µM.

Take `COc1ccc(Oc2cncc(N(C)CCN(C)C(=O)Cc3sccc3Cl)n2)cc1` [Compound 53, 2-(3-Chloro-thiophen-2-yl)-N-(2-{[6-(4-methoxy-phenoxy)-pyrazin-2-yl]-methyl-amino}-ethyl)-N-methyl-acetamide]: the IC50 lay in the range of 1 to 10 µM.

The compound `COc1ccc(Oc2cncc(N(C)CCNC(=O)OC(C)(C)C)n2)cc1` [Compound 54, (2-{[6-(4-Methoxy-phenoxy)-pyrazin-2-yl]-methyl-amino}-ethyl)-carbamic acid tert-butyl ester] came in with a concentration for half-maximal inhibition (IC50) of 1 to 10 µM.

Compound `CC(=O)N(C)CCN(C)c1cncc(Oc2ccc3cccnc3c2)n1` [Compound 55, N-Methyl-N-(2-{methyl-[6-(quinolin-7-yloxy)-pyrazin-2-yl]-amino}-ethyl)-acetamide] yielded an IC50 of 1 to 10 µM.

In the case of `CC(=O)N(C)CCN(C)c1cncc(Oc2ccc(O)cc2)n1` [Compound 56, N-(2-{[6-(4-Hydroxy-phenoxy)-pyrazin-2-yl]-methyl-amino}-ethyl)-N-methyl-acetamide], the IC50 lay within 0.2 to 1 µM.

The compound `COc1ccc(Oc2cncc(NCC3CCCN3C(C)=O)n2)cc1` (stereo not drawn) [Compound 57, 1-(2-{[6-(4-Methoxy-phenoxy)-pyrazin-2-ylamino]-methyl}-pyrrolidin-1-yl)-ethanone] gave a half-maximal inhibitory concentration (IC50) of 1 to 10 µM.

With `CC(=O)NCCN(C)c1cncc(Oc2ccc(F)cc2)n1` [Compound 58, N-(2-{[6-(4-Fluoro-phenoxy)-pyrazin-2-yl]-methyl-amino}-ethyl)-acetamide], the half-maximal inhibitory concentration (IC50) was in the range of 1 to 10 µM.

Compound `COc1ccc(Oc2cncc(N(C)CCNC(C)=O)n2)cc1` [Compound 59, N-(2-{[6-(4-Methoxy-phenoxy)-pyrazin-2-yl]-methyl-amino}-ethyl)-acetamide] had a 50% inhibitory concentration (IC50) of 0.2 to 1 µM.

For the compound `COc1ccc(Oc2cncc(N(C)CCN(C)S(=O)(=O)c3ccc(F)cc3F)n2)cc1` [Compound 60, 2,4-Difluoro-N-(2-{[6-(4-methoxy-phenoxy)-pyrazin-2-yl]-methyl-amino}-ethyl)-N-methyl-benzene-sulfonamide], the IC50 was 1 to 10 µM.

For the compound `COc1ccc(Oc2cncc(N(C)CCN(C)S(=O)(=O)c3cc(F)ccc3F)n2)cc1` [Compound 61, 2,5-Difluoro-N-(2-{[6-(4-methoxy-phenoxy)-pyrazin-2-yl]-methyl-amino}-ethyl)-N-methyl-benzene-sulfonamide], the IC50 was in the range of 1 to 10 µM.

`CC(=O)N1CCCC1CNc1cncc(Oc2ccc(F)cc2)n1` (stereo not drawn) [Compound 62, 1-(2-{[6-(4-Fluoro-phenoxy)-pyrazin-2-ylamino]-methyl}-pyrrolidin-1-yl)-ethanone] returned a concentration for half-maximal inhibition (IC50) of 1 to 10 µM.

Source of the values: patent US9493444B2 (Merck Patent GmbH, priority 2012, dated 2016).
